Source: publication PMC9820166, “Salicylate Sodium Suppresses Monocyte Chemoattractant Protein-1 Production by Directly Inhibiting Phosphodiesterase 3B in TNF-α-Stimulated Adipocytes” (International Journal of Molecular Sciences, 2022)

Tests used:
[1] = test system: MCP-1 production in TNF-α-stimulated 3T3-L1 pre-adipocytes; test: Supernatant MCP-1 (ELISA) in TNF-α-stimulated 3T3-L1 pre-adipocytes; assay type: cell-based, mouse
Description: (§1) The adipocytes were pretreated with SAS at different concentrations (0–5 mM) for 1 h and then stimulated with mouse TNF-α (40 ng/mL) at 37 °C for 24 h. The MCP-1 level in supernatant (for 3T3-L1 adipocytes) or subnatant (for primary adipocytes) was determined by ELISA according to the manufacturer’s instruction. The concentration of MCP-1 was calculated from the standard curve.

recombinant human PDE3B = biological target: T1, recombinant human PDE3B (Homo sapiens, UniProt Q13370); test: PDE3B activity inhibition (PDE-Glo PDE assay kit); assay type: biochemical
T1 construct: purchased SignalChem Lifesciences Corporation
T1 sequence (Q13370 whole entry): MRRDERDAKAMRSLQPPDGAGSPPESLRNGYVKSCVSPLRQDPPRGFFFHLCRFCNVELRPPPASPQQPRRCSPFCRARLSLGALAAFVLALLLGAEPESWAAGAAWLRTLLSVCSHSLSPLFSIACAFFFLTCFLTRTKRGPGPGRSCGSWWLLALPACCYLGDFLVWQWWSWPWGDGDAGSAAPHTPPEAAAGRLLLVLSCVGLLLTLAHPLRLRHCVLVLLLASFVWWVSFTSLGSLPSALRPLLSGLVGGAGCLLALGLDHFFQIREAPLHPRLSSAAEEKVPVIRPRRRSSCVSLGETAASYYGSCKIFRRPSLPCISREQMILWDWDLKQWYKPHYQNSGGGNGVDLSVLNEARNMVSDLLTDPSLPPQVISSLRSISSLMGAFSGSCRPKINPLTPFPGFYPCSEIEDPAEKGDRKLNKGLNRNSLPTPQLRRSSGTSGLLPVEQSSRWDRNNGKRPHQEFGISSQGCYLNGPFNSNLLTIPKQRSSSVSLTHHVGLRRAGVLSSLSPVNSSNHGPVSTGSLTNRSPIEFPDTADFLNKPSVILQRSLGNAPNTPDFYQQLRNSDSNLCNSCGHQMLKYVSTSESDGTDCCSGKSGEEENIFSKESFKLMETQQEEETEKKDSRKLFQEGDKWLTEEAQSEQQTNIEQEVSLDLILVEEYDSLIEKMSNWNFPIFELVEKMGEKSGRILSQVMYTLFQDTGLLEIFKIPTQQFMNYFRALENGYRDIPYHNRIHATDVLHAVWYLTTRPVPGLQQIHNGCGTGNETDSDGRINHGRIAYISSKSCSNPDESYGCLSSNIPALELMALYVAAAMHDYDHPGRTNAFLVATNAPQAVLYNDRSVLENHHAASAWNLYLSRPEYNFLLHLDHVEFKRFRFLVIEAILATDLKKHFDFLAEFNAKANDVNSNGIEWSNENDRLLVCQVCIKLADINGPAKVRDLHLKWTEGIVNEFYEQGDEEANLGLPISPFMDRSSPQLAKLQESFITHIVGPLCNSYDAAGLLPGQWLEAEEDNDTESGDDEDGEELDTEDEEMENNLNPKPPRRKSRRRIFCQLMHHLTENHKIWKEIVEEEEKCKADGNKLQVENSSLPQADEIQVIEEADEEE
Text: (§2) (Fremont, CA, USA). […] All other reagents were of analytical grade.

human PDE3A = biological target: T2, human PDE3A (Homo sapiens, UniProt Q14432); test: PDE3A activity inhibition; assay type: biochemical
T2 construct: purchased Sino Biological Inc
T2 sequence (Q14432 whole entry): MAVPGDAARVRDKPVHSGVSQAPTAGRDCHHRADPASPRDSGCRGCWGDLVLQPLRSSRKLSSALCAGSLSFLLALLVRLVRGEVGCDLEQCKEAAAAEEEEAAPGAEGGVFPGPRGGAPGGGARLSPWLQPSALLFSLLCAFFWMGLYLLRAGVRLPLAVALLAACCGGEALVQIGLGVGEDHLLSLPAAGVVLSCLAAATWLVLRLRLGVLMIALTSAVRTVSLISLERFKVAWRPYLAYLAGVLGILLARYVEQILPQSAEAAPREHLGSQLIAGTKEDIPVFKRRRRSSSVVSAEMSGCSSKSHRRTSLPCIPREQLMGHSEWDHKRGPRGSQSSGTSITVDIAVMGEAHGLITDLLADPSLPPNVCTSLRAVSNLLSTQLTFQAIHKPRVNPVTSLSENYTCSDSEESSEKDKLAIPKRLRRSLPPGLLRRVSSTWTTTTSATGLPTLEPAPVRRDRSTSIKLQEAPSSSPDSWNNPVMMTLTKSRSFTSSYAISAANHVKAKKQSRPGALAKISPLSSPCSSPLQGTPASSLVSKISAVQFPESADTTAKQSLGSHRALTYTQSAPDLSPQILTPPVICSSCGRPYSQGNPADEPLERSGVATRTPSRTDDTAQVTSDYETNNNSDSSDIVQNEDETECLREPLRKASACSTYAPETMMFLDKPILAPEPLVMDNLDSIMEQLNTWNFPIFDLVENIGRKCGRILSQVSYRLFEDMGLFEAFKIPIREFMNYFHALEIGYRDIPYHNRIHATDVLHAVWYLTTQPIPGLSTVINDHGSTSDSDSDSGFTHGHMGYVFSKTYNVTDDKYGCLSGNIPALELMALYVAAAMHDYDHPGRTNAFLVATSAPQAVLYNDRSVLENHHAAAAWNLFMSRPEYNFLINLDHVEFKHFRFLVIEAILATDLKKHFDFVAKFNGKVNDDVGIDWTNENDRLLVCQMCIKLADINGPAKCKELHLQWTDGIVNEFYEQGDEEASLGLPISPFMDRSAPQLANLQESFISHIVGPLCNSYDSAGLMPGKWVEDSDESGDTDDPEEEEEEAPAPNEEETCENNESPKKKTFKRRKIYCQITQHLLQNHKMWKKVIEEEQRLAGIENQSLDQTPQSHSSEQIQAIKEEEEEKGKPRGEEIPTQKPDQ
Text: as §2

[2] = test system: MCP-1 production in TNF-α-stimulated mouse primary adipocytes; test: Subnatant MCP-1 (ELISA) in TNF-α-stimulated mouse primary adipocytes; assay type: cell-based; settings: SAS 0–5 mM pretreatment 1 h, TNF-α 40 ng/mL 24 h
Description: The mouse primary adipocytes were isolated from normal lean male C57BL/6N mice, as described previously, with modification. In brief, the mice were anesthetized by an intraperitoneal injection of 2,2,2-tribromoethanol (200 mg/kg) and sacrificed via a dislocated neck. The epididymal fat pads were removed, minced and digested by collagenase I (2 mg/mL in DMEM supplemented with 20 mg/mL BSA) at 37 °C for 1 h. The digested tissue was filtered, and the filtrate was centrifuged at 200× g for 5 min. Remove and discard the underlying pellet (containing pre-adipocytes, fibroblasts, and erythrocytes) and media. Re-suspend the remaining fat layer in 10 mL DMEM and centrifuge at 200× g for 5 min. Repeat this step two additional times. The floating top layer containing primary differentiated mature adipocytes was collected and cultured in DMEM supplemented with 10% fetal bovine serum (FBS).
as §1

[3] = test system: MCP-1 production in TNF-α-stimulated 3T3-L1 mature adipocytes; test: Supernatant MCP-1 (ELISA) in TNF-α-stimulated 3T3-L1 mature adipocytes; assay type: cell-based, mouse; settings: SAS 0–5 mM pretreatment 1 h, TNF-α 40 ng/mL 24 h
Description: The 3T3-L1 pre-adipocytes were cultured and differentiated into mature adipocytes, as previously described, with slight modification. The cells were maintained in M1 medium (DMEM supplemented with 10% FBS, 1 mM sodium pyruvate, 4 mM glutamine and 1% penicillin-streptomycin solution) to reach confluence. Approximately 2 days later (termed day 0), the medium was replaced with M2 medium (M1 medium supplemented with 1.5 μg/mL insulin, 1 μM dexamethasone, 0.5 mM IBMX and 2 μM rosiglitazone). Two days later, the medium was then changed to M3 medium (M1 medium supplemented with 1.5 μg/mL insulin). Two days later, the medium was replaced with M2 for another 2 days. From day 6, the cells were maintained in M3 medium with a medium change every day. About 8–10 days later, a microscope could observe a lot of lipid droplets and the mature adipocytes were obtained.
as §1

MCP-1 mRNA = MCP-1 mRNA level by RT-qPCR in TNF-α-stimulated 3T3-L1 pre-adipocytes; assay type: cell-based, mouse; settings: SAS 0–5 mM pretreatment 1 h, TNF-α 40 ng/mL 4 h
Description: The adipocytes were pretreated with SAS at different concentrations (0–5 mM) for 1 h and then stimulated with mouse TNF-α (40 ng/mL) at 37 °C for 4 h. The total mRNA was isolated from 3T3-L1 pre-adipocytes by Trizol reagent according to the manufacturer’s instruction. Reverse transcription reactions were conducted by using M-MuLV first strand cDNA synthesis kit. The RT-qPCR analyses were performed on a BIOER Fluorescent Quantitative Detection System (Bioer Technology, Hangzhou, China). The procedure condition was as follows: 95 °C for 30 s, 95 °C for 5 s with 40 cycles, and 62 °C for 30 s. The comparative Ct method (2^−ΔΔCt) was used to analyze the relative intensities. The primer sequences for MCP-1 were as follows: 5′-[…]-3′ (forward) and 5′-[…]-3′ (reverse). The primer sequences for β-actin were as follows: 5′-[…]-3′ (forward) and 5′-[…]-3′ (reverse).

MCP-1 mRNA stability = MCP-1 mRNA stability assay (actinomycin D); assay type: cell-based, mouse; settings: SAS 5 mM, TNF-α 40 ng/mL 2 h then actinomycin D 5 ug/mL
Description: The mRNA stability assay was performed as described previously with modification. The 3T3-L1 pre-adipocytes were stimulated with TNF-α (40 ng/mL) for 2 h, and then treated with actinomycin D (5 ug/mL). SAS (5 mM) was added at different time points (0, 0.5, 2, 4 h). The total RNA were harvested, and the MCP-1 mRNA levels were measured by RT-qPCR analysis.

p-ERK = test: Western blot of p-ERK in TNF-α-stimulated 3T3-L1 pre-adipocytes; assay type: cell-based, mouse; settings: TNF-α 40 ng/mL
Description: (§3) The 3T3-L1 pre-adipocytes ([…] per well in 6-well plates) were incubated with SAS for 1 h and then stimulated with mouse TNF-α (40 ng/mL) at 37 °C for indicated time. The total protein was extracted with the mammalian protein extraction kit. For western blot assay, equal amounts of protein samples (30 µg/lane) were separated by 10% sodium dodecyl sulphate-polyacrylamide gel electrophoresis (SDS-PAGE) and then transferred to PVDF membranes. Subsequently, the membranes were blocked with 5% non-fat milk powder in TBST (0.9 mM Tris, 9 mM Tris-HCl, 150 mM NaCl, 0.05% Tween-20) for 2 h at room temperature, and then incubated with various primary antibodies overnight at 4 °C. After being washed by TBST, the membranes were incubated with the corresponding secondary antibodies for 1 h at room temperature. After successive washes, the protein bands were detected using ECL luminescence reagent and photographed by the ChemiDoc XRS+ imaging system (Bio-Rad Technology, Hercules, California, America) or ChemiScope 6000 Exp (Clinx Science Instruments Co., Shanghai, China).

p-p38 = test: Western blot of p-p38 in TNF-α-stimulated 3T3-L1 pre-adipocytes; assay type: cell-based, mouse; settings: TNF-α 40 ng/mL
Description: as §3

MKP-1 = test: Western blot of MKP-1 expression in TNF-α-stimulated 3T3-L1 pre-adipocytes; assay type: cell-based, mouse; settings: 2 h after TNF-α stimulation
Description: as §3

intracellular cAMP = test: Intracellular cAMP level (ELISA) in TNF-α-stimulated 3T3-L1 pre-adipocytes; assay type: cell-based, mouse; settings: SAS pretreatment 1 h, TNF-α 40 ng/mL 1 h
Description: To determine the time-course change of the TNF-α-induced intracellular cAMP, the 3T3-L1 pre-adipocytes were pretreated with or without SAS (5 mM) for 1 h and then exposed to TNF-α (40 ng/mL) for different time. The cells were lysed, and the changes of intracellular cAMP within 4 h were measured by using a commercial cAMP ELISA kit. To determine the concentration-effect of SAS on intracellular cAMP, 3T3-L1 pre-adipocytes were pretreated with SAS for 1 h at the indicated concentrations and then exposed to TNF-α (40 ng/mL) for further 1 h. The cells were lysed, and the intracellular cAMP level was measured by using a commercial cAMP ELISA kit. The protein concentration of each sample was determined using BCA assay, and the cAMP level of each sample was calculated according to the below formula:cAMP level (pmol/mg protein) = cAMP concentration (pmol/mL)/protein concentration (mg/mL)

PKA = test: Intracellular PKA activity (PepTag assay) in TNF-α-stimulated 3T3-L1 pre-adipocytes; assay type: cell-based, mouse; settings: SAS pretreatment 1 h, TNF-α 40 ng/mL 1 h
Description: The 3T3-L1 pre-adipocytes were pretreated with SAS for 1 h and then stimulated with TNF-α (40 ng/mL) for further 1 h. The cells were lysed by cold PKA extraction buffer [25 mM Tris-HCl (pH 7.4), 0.5 mM EDTA, 0.5 mM EGTA, 10 mM β-mercaptoethanol, 1 μg/mL leupetin, 1 μg/mL aprotinin and 0.5 mM PMSF] and centrifuged (5000× g) at 4 °C for 10 min. The supernatant was used immediately for PKA activity determination by using a PepTag assay for non-radioactive detection of PKA.

[4] = test system: high-fat diet obese C57BL/6N mice; test: Recruitment of labeled circulating monocytes into adipose tissue of obese mice; assay type: in vivo, mouse; settings: 45 mg/kg/day subcutaneous for 4 days
Description: page 7: Figure S7. SAS impedes the recruitment of circulating monocytes into adipose tissue in vivo (n = 4). (A) The fluorescence intensity of monocytes in adipose tissue. Male C57BL/6N mice (18 g - 20 g) were fed with high-fat diet (HFD) for 18 weeks. The obtained obese mice (36 g - 40 g) with enough epididymal adipose tissues were subcutaneously injected with SAS (45 mg/kg/day) for 4 days. Circulating blood monocytes were labeled by intravenous injection of Fluoresbrite YG Carboxylate Microspheres. Three days later, the mice were euthanatized and adipose tissues around epididymis were collected, 1.5 g of adipose tissue was digested by collagenase I. The fluorescence value of digestive juice was read at λex 441 nm and λem 486 nm. **P < 0.01 vs. HFD alone. (B) The photograph of labeled monocytes in adipose tissues. The sectioned adipose tissue (about 0.5 g) for photograph by a laser confocal microscopy using a 20 × objective. Fluorescence-labeled monocytes were shown in green. SAS, salicylate sodium. (1 picture or pasted object on this page, not shown here)

human PDE4B = human PDE4B (Homo sapiens, UniProt Q07343); settings: read-out: IC50 PDE4B activity
Sequence of human PDE4B (Q07343 whole entry): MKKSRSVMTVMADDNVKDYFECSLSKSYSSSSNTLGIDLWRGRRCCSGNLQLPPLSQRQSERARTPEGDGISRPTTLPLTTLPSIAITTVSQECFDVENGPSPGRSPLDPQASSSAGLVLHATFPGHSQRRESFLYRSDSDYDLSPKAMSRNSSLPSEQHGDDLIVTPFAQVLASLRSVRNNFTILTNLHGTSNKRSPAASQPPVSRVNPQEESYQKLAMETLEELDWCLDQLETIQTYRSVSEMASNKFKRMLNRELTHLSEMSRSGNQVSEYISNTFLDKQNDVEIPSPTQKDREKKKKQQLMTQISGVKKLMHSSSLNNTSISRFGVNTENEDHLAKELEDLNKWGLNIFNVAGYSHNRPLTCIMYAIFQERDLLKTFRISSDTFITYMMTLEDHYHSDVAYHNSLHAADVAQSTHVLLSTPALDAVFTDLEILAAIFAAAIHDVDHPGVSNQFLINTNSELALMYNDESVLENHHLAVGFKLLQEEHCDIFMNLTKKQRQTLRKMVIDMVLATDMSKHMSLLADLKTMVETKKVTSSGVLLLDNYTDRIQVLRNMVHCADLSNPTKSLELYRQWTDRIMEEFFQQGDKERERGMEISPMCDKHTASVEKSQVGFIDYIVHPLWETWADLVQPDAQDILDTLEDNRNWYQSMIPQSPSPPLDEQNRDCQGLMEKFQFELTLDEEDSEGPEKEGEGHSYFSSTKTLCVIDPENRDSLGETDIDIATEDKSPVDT

[5] = 200 μM pretreatment 1 h, TNF-α 40 ng/mL 24 h

c1cc(-c2cnn3cc(-c4ccc(OCCN5CCCCC5)cc4)cnc23)ccn1 [Compound C]
Effect of AMPK inhibitor on the MCP-1-lowering effect of SAS ([1]; co-treatment with SAS, TNF-α-stimulated): could not antagonize the effect of SAS

Nc1ncnc2c1ncn2[C@@H]1O[C@@H]2CO[P@@](O)(=S)O[C@H]2[C@H]1O [RP-cAMPS]
Effect of cAMP antagonist on the MCP-1-lowering effect of SAS ([1]; 100 μM, with SAS, TNF-α-stimulated): abolished the effect of SAS on MCP-1

Cc1[nH]c(=O)c(C#N)cc1-c1ccncc1 [milrinone]
Effect on MCP-1 production [1, 5]: suppressed the MCP-1 production

CN(C(=O)CCCOc1ccc2[nH]c(=O)ccc2c1)C1CCCCC1 [cilostamide]
Effect on MCP-1 production [1, 5]: suppressed the MCP-1 production

O=S(=O)(NCCNC/C=C/c1ccc(Br)cc1)c1cccc2cnccc12 [H89]
Effect of PKA antagonist on the MCP-1-lowering effect of SAS ([1]; 100 nM, with SAS, TNF-α-stimulated): abolished the effect of SAS on MCP-1

O=C(O)c1ccccc1O [SAS, salicylate sodium]
IC50 (recombinant human PDE3B): 13.8 mM | IC50 (human PDE3A): 6 mM | Effect on MCP-1 production (supernatant) ([1]; 3T3-L1 pre-adipocytes, SAS 0–5 mM pretreatment 1 h, TNF-α 40 ng/mL 24 h): significantly decreased MCP-1 production | Effect of SAS on MCP-1 in IKKβ-deficient cells ([1]; IKKβ siRNA knockdown 3T3-L1 pre-adipocytes): did not impact the effect of SAS on MCP-1 | Effect of SAS on MCP-1 in PDE3B-deficient cells ([1]; PDE3B siRNA knockdown 3T3-L1 pre-adipocytes vs scrambled siRNA): almost disappeared | Concentration that impedes MCP-1 expression in adipocytes ([1]; in vitro, adipocytes (Figure 2)): 1.25 to 5 mM | Effect on MCP-1 production (subnatant) [2]: significantly decreased MCP-1 production | Effect on MCP-1 production (supernatant) [3]: significantly decreased MCP-1 production | Effect on MCP-1 mRNA level (MCP-1 mRNA): concentration-dependently decreased the MCP-1 mRNA level | Effect on MCP-1 mRNA stability (MCP-1 mRNA stability): did not affect the mRNA stability of MCP-1 | Effect on p-ERK level (p-ERK): concentration-dependently decrease the levels of p-ERK and p-p38 | Effect on p-p38 level (p-p38): concentration-dependently decrease the levels of p-ERK and p-p38 | Effect on MKP-1 expression (MKP-1): maintained the expression of MKP-1 at 2 h | Effect on TNF-α-caused reduction of intracellular cAMP (intracellular cAMP): could prevent this decrease in a concentration-dependent manner | Effect on intracellular PKA activity (PKA): elevated the intracellular PKA activity | Recruitment of circulating monocytes into adipose tissue [4]: markedly prevented the recruitment of circulating monocytes into the adipose tissue | IC50 (human PDE4B): 810 µM

NC(=O)c1ncn([C@@H]2O[C@H](CO)[C@@H](O)[C@H]2O)c1N [AICAR]
Effect on MCP-1 production ([1]; 100 μM pretreatment 1 h, TNF-α 40 ng/mL 24 h): did not decrease the MCP-1 production
